# According to ChEMBL document CHEMBL4414655, “Position Effect of Fatty Acid Modification on the Cytotoxicity and Antimetastasis Potential of the Cytotoxic Peptide Lycosin-I” (J Med Chem, 2019):
# Calls of active or inactive are those of the source. The rule behind the calls is not given here. Residues, ends and D or L forms follow the SMILES beside them. *: point of attachment. Lauroyl = CCCCCCCCCCCC(=O)*
# What was measured:
# [1] = test system: HEK-293T; assay: Cytotoxicity in human HEK293T cells assessed as reduction in cell viability incubated for 24 hrs by CCK8 assay; assay type: cell-based; conditions: human, hek-293t
# [2] = test system: A549; assay: Cytotoxicity in human A549 cells assessed as reduction in cell viability incubated for 24 hrs by CCK8 assay; assay type: functional, cell-based; conditions: A549, 24 h
# [3] = test system: A549; assay: Induction of cell membrane disruption in human A549 cells assessed as LDH release at 3.25 uM incubated for 30 mins by fluorescence based assay relative to control
# [4] = test system: A549; assay: Potency index, ratio of IC50 for lycosin-I to IC50 for test compound for cytotoxicity in human A549 cells assessed as reduction in cell viability at 0.78 to 50 uM incubated for 24 hrs by CCK8 assay; assay type: functional
# [5] = test system: B16-F10; assay: Cytotoxicity in mouse B16/F10 cells assessed as reduction in cell viability incubated for 24 hrs by CCK8 assay; assay type: functional, cell-based; conditions: B16-F10, 24 h
# [6] = species on record: Homo sapiens; assay: Induction of cell membrane disruption in human erythrocytes cells assessed as induction of hemolysis at 0.098 to 50 uM incubated for 1 hr by fluorescence based assay relative to control; assay type: cell membranes
# [7] = test system: A549; assay: Cytotoxicity in human A549 cells assessed as reduction in cell viability by trypan blue staining method; assay type: functional, cell-based
Compound,Activity [1],IC50 [2],Activity [3],Ratio IC50 [4],IC50 [5],Activity [6],Activity [7]
CCCCCCCCCCCC(=O)NCCCC[C@H](NC(=O)[C@H](C)NC(=O)[C@@H](NC(=O)[C@H](Cc1ccccc1)NC(=O)[C@H](CCCCN)NC(=O)[C@H](C)NC(=O)[C@@H](NC(=O)[C@H](CO)NC(=O)[C@H](CCCCN)NC(=O)[C@H](CCSC)NC(=O)[C@H](C)NC(=O)[C@H](CCCCN)NC(=O)[C@H](Cc1ccccc1)NC(=O)[C@H](Cc1c[nH]c2ccccc12)NC(=O)CNC(=O)[C@@H](N)CCCCN)[C@@H](C)CC)[C@@H](C)CC)C(=O)N[C@@H](CCC(=O)O)C(=O)N[C@@H](CCCCN)C(=O)N[C@@H](CC(C)C)C(=O)N[C@@H](CCCCN)C(=O)N[C@@H](CCC(=O)O)C(=O)N[C@@H](Cc1cnc[nH]1)C(=O)N[C@@H](CC(C)C)C(=O)O (H-KGWFKAMKSIAKFIAK(Lauroyl)EKLKEHL-OH),Toxic,4600 nM,34.6%,4 - 15,2000 nM,Active,Active
CCCCCCCCCCCC(=O)NCCCC[C@H](NC(=O)[C@H](CC(C)C)NC(=O)[C@H](CCCCN)NC(=O)[C@H](CCC(=O)O)NC(=O)[C@H](CCCCN)NC(=O)[C@H](C)NC(=O)[C@@H](NC(=O)[C@H](Cc1ccccc1)NC(=O)[C@H](CCCCN)NC(=O)[C@H](C)NC(=O)[C@@H](NC(=O)[C@H](CO)NC(=O)[C@H](CCCCN)NC(=O)[C@H](CCSC)NC(=O)[C@H](C)NC(=O)[C@H](CCCCN)NC(=O)[C@H](Cc1ccccc1)NC(=O)[C@H](Cc1c[nH]c2ccccc12)NC(=O)CNC(=O)[C@@H](N)CCCCN)[C@@H](C)CC)[C@@H](C)CC)C(=O)N[C@@H](CCC(=O)O)C(=O)N[C@@H](Cc1cnc[nH]1)C(=O)N[C@@H](CC(C)C)C(=O)O (H-KGWFKAMKSIAKFIAKEKLK(Lauroyl)EHL-OH),Toxic,5000 nM,36.6%,4 - 15,2000 nM,Active,Active
CCCCCCCCCCCC(=O)NCCCC[C@H](NC(=O)[C@H](CCC(=O)O)NC(=O)[C@H](CCCCN)NC(=O)[C@H](C)NC(=O)[C@@H](NC(=O)[C@H](Cc1ccccc1)NC(=O)[C@H](CCCCN)NC(=O)[C@H](C)NC(=O)[C@@H](NC(=O)[C@H](CO)NC(=O)[C@H](CCCCN)NC(=O)[C@H](CCSC)NC(=O)[C@H](C)NC(=O)[C@H](CCCCN)NC(=O)[C@H](Cc1ccccc1)NC(=O)[C@H](Cc1c[nH]c2ccccc12)NC(=O)CNC(=O)[C@@H](N)CCCCN)[C@@H](C)CC)[C@@H](C)CC)C(=O)N[C@@H](CC(C)C)C(=O)N[C@@H](CCCCN)C(=O)N[C@@H](CCC(=O)O)C(=O)N[C@@H](Cc1cnc[nH]1)C(=O)N[C@@H](CC(C)C)C(=O)O (H-KGWFKAMKSIAKFIAKEK(Lauroyl)LKEHL-OH),Toxic,5100 nM,40.2%,4 - 15,2000 nM,Active,Active
CCCCCCCCCCCC(=O)NCCCC[C@H](NC(=O)[C@H](Cc1ccccc1)NC(=O)[C@H](Cc1c[nH]c2ccccc12)NC(=O)CNC(=O)[C@@H](N)CCCCN)C(=O)N[C@@H](C)C(=O)N[C@@H](CCSC)C(=O)N[C@@H](CCCCN)C(=O)N[C@@H](CO)C(=O)N[C@H](C(=O)N[C@@H](C)C(=O)N[C@@H](CCCCN)C(=O)N[C@@H](Cc1ccccc1)C(=O)N[C@H](C(=O)N[C@@H](C)C(=O)N[C@@H](CCCCN)C(=O)N[C@@H](CCC(=O)O)C(=O)N[C@@H](CCCCN)C(=O)N[C@@H](CC(C)C)C(=O)N[C@@H](CCCCN)C(=O)N[C@@H](CCC(=O)O)C(=O)N[C@@H](Cc1cnc[nH]1)C(=O)N[C@@H](CC(C)C)C(=O)O)[C@@H](C)CC)[C@@H](C)CC (H-KGWFK(Lauroyl)AMKSIAKFIAKEKLKEHL-OH),Toxic,7700 nM,23.1%,4 - 15,2000 nM,Active,Active
CCCCCCCCCCCC(=O)NCCCC[C@H](N)C(=O)NCC(=O)N[C@@H](Cc1c[nH]c2ccccc12)C(=O)N[C@@H](Cc1ccccc1)C(=O)N[C@@H](CCCCN)C(=O)N[C@@H](C)C(=O)N[C@@H](CCSC)C(=O)N[C@@H](CCCCN)C(=O)N[C@@H](CO)C(=O)N[C@H](C(=O)N[C@@H](C)C(=O)N[C@@H](CCCCN)C(=O)N[C@@H](Cc1ccccc1)C(=O)N[C@H](C(=O)N[C@@H](C)C(=O)N[C@@H](CCCCN)C(=O)N[C@@H](CCC(=O)O)C(=O)N[C@@H](CCCCN)C(=O)N[C@@H](CC(C)C)C(=O)N[C@@H](CCCCN)C(=O)N[C@@H](CCC(=O)O)C(=O)N[C@@H](Cc1cnc[nH]1)C(=O)N[C@@H](CC(C)C)C(=O)O)[C@@H](C)CC)[C@@H](C)CC (H-K(Lauroyl)GWFKAMKSIAKFIAKEKLKEHL-OH),Toxic,3100 nM,51.3%,4 - 15,2000 nM,Active,Active
CCCCCCCCCCCC(=O)NCCCC[C@H](NC(=O)[C@H](C)NC(=O)[C@@H](NC(=O)[C@H](CO)NC(=O)[C@H](CCCCN)NC(=O)[C@H](CCSC)NC(=O)[C@H](C)NC(=O)[C@H](CCCCN)NC(=O)[C@H](Cc1ccccc1)NC(=O)[C@H](Cc1c[nH]c2ccccc12)NC(=O)CNC(=O)[C@@H](N)CCCCN)[C@@H](C)CC)C(=O)N[C@@H](Cc1ccccc1)C(=O)N[C@H](C(=O)N[C@@H](C)C(=O)N[C@@H](CCCCN)C(=O)N[C@@H](CCC(=O)O)C(=O)N[C@@H](CCCCN)C(=O)N[C@@H](CC(C)C)C(=O)N[C@@H](CCCCN)C(=O)N[C@@H](CCC(=O)O)C(=O)N[C@@H](Cc1cnc[nH]1)C(=O)N[C@@H](CC(C)C)C(=O)O)[C@@H](C)CC (H-KGWFKAMKSIAK(Lauroyl)FIAKEKLKEHL-OH),Toxic,4900 nM,38.5%,4 - 15,2000 nM,Active,Active
CCCCCCCCCCCC(=O)NCCCC[C@H](NC(=O)[C@H](CCSC)NC(=O)[C@H](C)NC(=O)[C@H](CCCCN)NC(=O)[C@H](Cc1ccccc1)NC(=O)[C@H](Cc1c[nH]c2ccccc12)NC(=O)CNC(=O)[C@@H](N)CCCCN)C(=O)N[C@@H](CO)C(=O)N[C@H](C(=O)N[C@@H](C)C(=O)N[C@@H](CCCCN)C(=O)N[C@@H](Cc1ccccc1)C(=O)N[C@H](C(=O)N[C@@H](C)C(=O)N[C@@H](CCCCN)C(=O)N[C@@H](CCC(=O)O)C(=O)N[C@@H](CCCCN)C(=O)N[C@@H](CC(C)C)C(=O)N[C@@H](CCCCN)C(=O)N[C@@H](CCC(=O)O)C(=O)N[C@@H](Cc1cnc[nH]1)C(=O)N[C@@H](CC(C)C)C(=O)O)[C@@H](C)CC)[C@@H](C)CC (H-KGWFKAMK(Lauroyl)SIAKFIAKEKLKEHL-OH),Toxic,7300 nM,25.7%,4 - 15,2000 nM,Active,Active
